Measurements published in patent US5639439A, “Gallium dimercaptosuccinate as a novel tumor imaging agent” (Institute of Nuclear Energy Research, Taiwan, priority 1994, dated 1997).

How the values were obtained:
glioblastoma (GBM) = assay: Animal biodistribution in glioblastoma (GBM) tumor-bearing athymic nude mice; type: in vivo; conditions: 2 hr. postinjection, tail vein
Protocol: The six-week old athymic nude mice were obtained from the Experiment Animal Center, Tri-service General Hospital, Taipei, Taiwan. The viable cultured cells, glioblastoma (GBM), were implanted in the upper back leg by intradermal injection. The tissue biodistribution of gallium-67 dimercaptosuccinate was determined following injection (0.15 to 0.2 ml) into tail vein of ketamine anesthetized in tumor-bearing mice. The reanesthetized animals were sacrificed immediately thereafter by decapitation at given time intervals. The organs of interest were subsequently excised, blotted with tissue paper, weighed and the radioactivity was measured. The tissue distribution of gallium-67 dimercaptosuccinate and gallium-67 chloride in tumor-bearing mice are shown in FIG. 1 at 2 hr. postinjection, as much as 7.8% and 1.1% were in GBM and gallium-67 chloride respectively.

tumor = assay: Gamma camera imaging of tumor-bearing mice; type: in vivo, athymic nude mice; conditions: gamma images at 5 min and 15 min
Protocol: FIG. 2 is a photograph showing the position of tumors in the body of athymic nude mice imaged […] after injection with gallium-67 dimercaptosuccinate.
Imaging was performed using the Elscint gamma camera with medium energy collimator, and a SIMIS-IV nuclear medicine computer for data processing.

Row | Compound | tissue distribution in GBM (glioblastoma (GBM)) [%] | in vivo stability (tumor)
1 | gallium-67 dimercaptosuccinate | 7.8 | stable in vivo
2 | [Cl][Ga]([Cl])[Cl] [gallium-67 chloride, reference compound] | 1.1 | –
